Several values for one entry are separate records, joined by “and”; a condition that tells them apart may be missing. Equal values may be shown once.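 Values below derive from 48-hour exposures of cells grown in 96-well plates, with endpoints linearly interpolated between the two concentrations bracketing the appropriate inhibition level. At the GI50, growth is halved. TGI is the concentration that stops growth completely.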
Columns and labels:
Experiment in all cases: NCI anticancer screen, dose series, 48 h
EKVX NSCLC = tested on: EKVX NSCLC
MOLT-4 leukemia = tested on: MOLT-4 leukemia
786-0 renal = tested on: 786-0 renal
NCI/ADR-RES ovarian = tested on: NCI/ADR-RES ovarian
CAKI-1 renal = tested on: CAKI-1 renal
OVCAR-3 ovarian = tested on: OVCAR-3 ovarian
A549 NSCLC = tested on: A549 NSCLC
HT29 colon = tested on: HT29 colon
MALME-3M melanoma = tested on: MALME-3M melanoma
DU-145 prostate = tested on: DU-145 prostate

Row | Structure (SMILES) | TGI (EKVX NSCLC) | TGI (MOLT-4 leukemia) | TGI (786-0 renal) | TGI (NCI/ADR-RES ovarian) | TGI (CAKI-1 renal) | TGI (OVCAR-3 ovarian) | TGI (A549 NSCLC) | TGI (HT29 colon) | TGI (MALME-3M melanoma) | TGI (DU-145 prostate) | GI50 (MOLT-4 leukemia) | GI50 (NCI/ADR-RES ovarian) | GI50 (CAKI-1 renal) | GI50 (A549 NSCLC) | GI50 (DU-145 prostate)
1 | COc1ncc(/C=C2\OC(=O)c3ccccc32)c(OC)n1 | > 100 µM | > 100 µM | > 100 µM | > 100 µM | 36.8 µM | > 100 µM | > 100 µM | > 100 µM | > 100 µM | > 100 µM |  |  |  |  | 
2 | Cc1oc2c(cc(O)c3cc(O)ccc32)c2cccc1-2 | > 100 µM | > 100 µM | > 100 µM | > 100 µM | > 100 µM | > 100 µM | > 100 µM | > 100 µM | > 100 µM | > 100 µM |  |  |  |  | 
3 | COC(=O)C1=C(C(=O)OC)SC(=C2SCSC3=C2SC(C(=O)OC)=C(C(=O)OC)C32SC3=C(CCCC3)S2)S1 | > 100 µM | > 100 µM | > 100 µM | > 100 µM | > 100 µM | > 100 µM | > 100 µM | > 100 µM | > 100 µM | > 100 µM |  |  |  |  | 
4 | CC(=O)N1C(C(=O)NC2CCCCC2)CSC1c1ccccc1 (stereo not given) | > 100 µM | > 100 µM | > 100 µM | > 100 µM | > 100 µM | > 100 µM | > 100 µM | > 100 µM | > 100 µM | > 100 µM |  |  |  |  | 
5 | CCOP(=O)(OCC)C(F)(F)c1ccc(CC(NC(=O)OC(C)(C)C)C(=O)O)cc1 (stereo not given) | > 10 µM | > 10 µM | > 10 µM | > 10 µM | > 10 µM | > 10 µM | > 10 µM | > 10 µM | > 10 µM | > 10 µM |  |  |  |  | 
6 | Cc1ccc(-c2cc(-c3ccco3)c(C#N)c(=S)n2C2OC(CO)C(O)C(O)C2O)cc1 (stereo not given) | > 100 µM | > 100 µM | > 100 µM | > 100 µM | 46.9 µM and > 100 µM | 55.9 µM and 90.7 µM | 65.8 µM and > 100 µM | > 100 µM | > 100 µM | > 100 µM | 7.35 µM and 18.7 µM | 33.8 µM and > 100 µM | 17.6 µM and > 100 µM | 21.5 µM and 50.7 µM | 30.3 µM
7 | Cc1cccc(Cn2c3c(c4cc(O)ccc42)C(=O)c2ccccc2C3=O)c1 | 49 µM | > 100 µM | 26.6 µM | > 67.8 µM | > 100 µM | > 31.6 µM | > 100 µM | > 100 µM | > 100 µM | > 100 µM |  |  |  |  | 
8 | Cn1c(=O)c2c(nc3n2CC(C(=O)O)N3)n(C)c1=O (stereo not given) | > 100 µM | 0.242 µM | > 100 µM | > 100 µM | > 100 µM | > 100 µM | > 100 µM | > 100 µM | > 100 µM | > 100 µM |  |  |  |  | 
9 | CCOC(=O)N1CCN(Cc2cc(=O)n3ccc(C)cc3n2)CC1 | > 100 µM | > 100 µM | > 100 µM | > 100 µM | > 100 µM | > 100 µM | > 100 µM | > 100 µM | > 100 µM | > 100 µM |  |  |  |  | 
10 | C=C1CCN2CC[C@@H](OC(=O)/C(C)=C\C)[C@@H]12 | > 100 µM | > 100 µM | > 100 µM | > 100 µM | > 100 µM | > 100 µM | > 100 µM | > 100 µM | > 100 µM | > 100 µM |  |  |  |  | 
11 | C[C@]12CCC3C4=C(CCC3C1CCC2=O)C(=O)[C@H]1O[C@H]1C4=O (stereo not given in full) | 27.7 µM | 4.32 µM | 3.94 µM | 17.3 µM | 4.88 µM | 3.15 µM | 26.4 µM | 3.45 µM | 37.5 µM | 8.41 µM |  |  |  |  | 
12 | Cc1ccc(NC(=O)c2ccc(OP(=O)(O)Nc3ccc(C)cc3)cc2)cc1 | > 100 µM | > 100 µM | > 100 µM | > 100 µM | > 100 µM | > 100 µM | > 100 µM | > 100 µM | > 100 µM | > 100 µM |  |  |  |  | 
13 | CC1=Nc2ccccc2OC(C)=C1N=Nc1ccc2nc(C)[nH]c2c1 | > 100 µM | > 100 µM | > 100 µM | > 100 µM | > 100 µM | > 100 µM | > 100 µM | > 100 µM | > 100 µM | > 100 µM |  |  |  |  | 
14 | O=C(/C=C/c1ccccc1)C[C@@H](O)C[C@@H]1CC=CC(=O)O1 | 73.1 µM | 12.5 µM | 12 µM | > 85.5 µM | 27.6 µM | 13.3 µM | 52.2 µM | 16.8 µM | 30.6 µM | > 60.5 µM |  |  |  |  | 
15 | Nc1c(-c2ccc(Cl)c(Cl)c2)c2ccc([N+](=O)[O-])cc2c(=O)n1-c1nc2ccccc2s1 | 46.8 µM | > 100 µM | 19.6 µM | 6.8 µM | > 39.7 µM | > 100 µM | > 43.8 µM | > 34.2 µM | 9.72 µM | > 100 µM |  |  |  |  | 
16 | CCCCOC(=O)Nc1ccc(S(=O)(=O)Nc2ccccc2Cl)cc1 | 57 µM | 51.5 µM | 41.8 µM | 43.4 µM | 44.5 µM | 44.3 µM | > 100 µM | 35.9 µM | 52.5 µM | > 100 µM |  |  |  |  | 
17 | COP(=O)(OC)C1=c2c(C)noc2=C2C=COC2C1=O (stereo not given) | > 100 µM | > 100 µM | > 100 µM | > 100 µM | > 100 µM | > 100 µM | > 100 µM | > 100 µM | > 100 µM | > 100 µM |  |  |  |  | 
18 | Cc1cc(C)nc(NS(=O)(=O)c2ccc(NC(=O)c3ccc4nc5ccccc5c(Nc5ccc(S(N)(=O)=O)cc5)c4c3)cc2)n1 | > 100 µM | > 100 µM | > 100 µM | > 100 µM | > 100 µM | > 100 µM | > 100 µM | > 100 µM | > 100 µM | > 100 µM |  |  |  |  | 
19 | O=C(NCc1ccccc1)c1n[nH][nH]c1=O | > 100 µM | > 100 µM | > 100 µM | > 100 µM | > 100 µM | > 100 µM | > 100 µM | > 100 µM | > 100 µM | > 100 µM |  |  |  |  | 
20 | COC(=O)c1c(C)nc2c1cc(O)c1[nH]c(C)c(C)nc12 | > 100 µM | > 100 µM | > 100 µM | > 100 µM | > 100 µM | > 100 µM | > 100 µM | > 100 µM | > 100 µM | > 100 µM |  |  |  |  | 
21 | Nn1c(Nc2ccc(S(=O)(=O)Nc3ncccn3)cc2)nnc(/C=C/c2c(O)ccc3ccccc23)c1=O | 69.6 µM | > 100 µM | 73.6 µM | 79.7 µM | 89.9 µM | 55.9 µM | > 100 µM | > 100 µM | 75.8 µM | > 100 µM |  |  |  |  | 

From PubChem BioAssay (NCI)
